Reference: publication PMC12142871 (BMC Psychiatry, 2025)

What was measured:
[1] = cited from earlier work
[2] = Therapeutic drug monitoring: steady-state trough serum sertraline concentration
[3] = dose-response meta-analysis; cited from earlier work
[4] = Female, Adults, median (1st quartile, 3rd quartile), listed as sertraline

In the case of `CN[C@H]1CC[C@@H](c2ccc(Cl)c(Cl)c2)c2ccccc21` [Sertraline], the “reference range of serum concentration” value ([1]; children and adolescents, TDM-VIGIL study) is given as 66 to 76 ng/mL, the “coefficient of variation of concentration” value ([1]; interindividual pharmacokinetic variability) is given as 59% and the “C/D (dose-adjusted serum concentration)” value ([2]; Adults, median (1st quartile, 3rd quartile)) is given as 0.50 (0.33, 0.71) (ng/ml)/(mg/d). For the same compound, the “C/D (dose-adjusted serum concentration)” value ([2]; Adults, median (1st quartile, 3rd quartile), listed as sertraline) was 0.50 (ng/ml)/(mg/d), the “C/D (dose-adjusted serum concentration)” value ([2]; Children and Adolescents, median (1st quartile, 3rd quartile)) was 0.44 (0.31, 0.67) (ng/ml)/(mg/d) and the “C/D (dose-adjusted serum concentration)” value ([2]; Children and Adolescents, median (1st quartile, 3rd quartile), listed as sertraline) was 0.44 (ng/ml)/(mg/d). The “Serum Concentration” value ([2]; Female, Adults, median (1st quartile, 3rd quartile)) was 62.3 (33.5, 102.0) ng/mL, the C/D [2, 4] was 0.51 (ng/ml)/(mg/d) and the “Serum Concentration” value [2, 4] was 62.3 ng/mL. For the same compound, the “Serum Concentration” value ([2]; Female, Children and Adolescents, median (1st quartile, 3rd quartile)) was 53.2 (32.4, 86.2) ng/mL, the “Serum Concentration” value ([2]; Female, Total, median (1st quartile, 3rd quartile)) was 57.0 (32.9, 95.5) ng/mL and the “Serum Concentration” value ([2]; Male, Adults, median (1st quartile, 3rd quartile)) was 55.8 (35.0, 86.0) ng/mL. For the same compound, the “Serum Concentration” value ([2]; Male, Adults, median (1st quartile, 3rd quartile), listed as sertraline) was 55.8 ng/mL, the “Serum Concentration” value ([2]; Male, Children and Adolescents, median (1st quartile, 3rd quartile)) was 41.8 (23.9, 65.5) ng/mL and the “Serum Concentration” value ([2]; Male, Total, median (1st quartile, 3rd quartile)) was 52.4 (31.6, 81.3) ng/mL. For the same compound, the “C/D (dose-adjusted serum concentration)” value ([2]; Total, median (1st quartile, 3rd quartile)) was 0.47 (0.32, 0.69) (ng/ml)/(mg/d), the “Coefficient of variation (CV) of C/D value” ([2]; adults, interindividual) was 61.1% and the “Coefficient of variation (CV) of sertraline concentration” value ([2]; adults, interindividual) was 68.0%. The “Coefficient of variation (CV) of C/D value” ([2]; younger patients (children and adolescents), interindividual) was 80.6% and the effective daily range [3] was 50 to 150 mg.
